Assay results as given in PubChem BioAssay AID2305 (GlaxoSmithKline (GSK), 2010).
pIC50: −log10 of the molar value. Where “and” joins values, the source holds several entries; their conditions need not be identical. Equal entries are not always repeated.

Test system: P. falciparum 3D7 growth, pLDH absorbance
Experiment: P. falciparum 3D7 growth inhibition, dose response, strain 3D7 (AID 2305)

SMILES | pIC50
O=C(/C=C/c1ccc(Cl)c(Cl)c1)NCCCCCN1CCN(C(=O)Nc2cccc(F)c2)CC1 | 6.06
O=C(Nc1ccc(Cn2ncc(N3CCCNCC3)c(Cl)c2=O)cc1)Nc1ccc(C(F)(F)F)cc1 | 6.14
CC(O)C1CCCCN1C(=O)c1ccc(-c2ccc(-c3nc4ccccc4[nH]3)s2)cc1 (centres undefined) | 6.01
COc1ccc(Nc2nccc(-c3ccc(NC(=O)c4cc5cc(F)ccc5[nH]4)cc3)n2)cc1 | 6.20
COc1ccc(CC(=O)NC(CCN2CCC3(CCc4ccccc43)CC2)c2ccc(Cl)c(Cl)c2)cc1 (centres undefined) | 6.28
CN(C)CCNC(=O)N1CCCN(c2ncnc3cc(-c4ccc(Cl)cc4)sc23)CC1 | 5.99
CCCc1cn2c3c(cc(C(=O)N[C@@H](Cc4ccccc4)[C@H](O)CNC4CCCCC4)cc13)N(CC)S(=O)(=O)CC2 | 7.10
CC(=O)Nc1ccc(C(=O)Nc2cccc(-c3ccc(-c4nc5c(C)cccc5[nH]4)cc3)c2)cn1 | 6.72
NC(=O)C1CCN(Cc2cccc(-c3ccc(-c4nc5ccc(C(F)(F)F)cc5[nH]4)cc3)c2)CC1 | 6.21
CCCCC1=CC2C(=O)C(C(=O)OC)=CN=C2C=C1OCc1ccccc1 (centres undefined) | 7.40
CC(NC(=O)c1cc(-c2ccccc2)nc2c1cnn2C(C)C)C1CC1 (centres undefined) | 5.89
CC(C)(C)c1nn(-c2ccc(Cl)cc2)c2[nH]c(=O)c(CNC3CCCC3)cc12 | 6.64
CC1(C)N=C(N)N=C(N)N1c1ccc(Oc2ccccc2)cc1 | 6.47
Cc1ccc(-c2cc(C(=O)Nc3ccc(S(=O)(=O)N4CCCC(C)C4)cc3)[nH]n2)c(O)c1 (centres undefined) | 6.55
Cc1ccc(NC(=O)c2cc(S(=O)(=O)NC(C)(C)C)ccc2C)nc1 | 6.12
COc1cccc(C=Cc2nc(=O)c3ccccc3o2)c1OC | 7.22
CCC(C)C#Cc1c(C)nc(N)nc1N (centres undefined) | 6.59
Cc1cc(NCCC(=O)Nc2ccccc2)nc(NCCc2cccs2)n1 | 6.05
CCN(CC)CCCOC(=O)c1ccc2c(c1)-c1ccc(C(=O)OCCCN(CC)CC)c3cccc-2c13 | 6.03
COc1cc(CNC[C@@H](O)[C@H](Cc2ccccc2)NC(=O)c2cc(OC(C)C)cc(N3CCCS3(=O)=O)c2)cc(OC)c1 | 6.10
N#Cc1ccc2c(c1)CCN(CCC1CCC(NC(=O)Nc3cnc4ccccc4c3)CC1)C2 (centres undefined) | 6.11
c1ccc2[nH]c(-c3ccc(-c4ccc(CNC5CC5)cc4)s3)nc2c1 | 5.98
Nc1ncc(-c2ccc(Br)cc2)c(N)n1 | 6.04
CC(=O)c1ccc(Nc2c(C(N)=O)cnc3cc(-c4c(C)noc4C)ccc23)cc1 | 6.72
O=c1cc(NCCCNCc2ccc(Cl)c(Cl)c2)[nH]c2ccc(Cl)cc12 | 6.47

SMILES | pIC50
Cc1nnc2c(NC(=O)NC(C)C)cc3cc(-c4ccc(CN5CCCCC5)cc4)ccc3n12 | 5.93
Cn1ncc2c3c(CCN4CCC(NCc5ccc6c(c5)NC(=O)CO6)CC4)c(Cl)cnc3ccc21 | 6.31
Oc1ccc(CCCNc2nc(NCc3cccc4ccccc34)nc(NC3CCNCC3)n2)cc1 | 5.95
O=c1cc(NCCCNCc2cccc(OC(F)(F)C(F)F)c2)[nH]c2ccccc12 | 5.90
CCNc1nc(OCC(F)(F)F)nc(N(c2ccccc2)c2ccccc2)n1 | 6.33
OC(CNCc1ccccc1OCc1ccccc1)c1cc(Br)cs1 (centres undefined) | 6.14
CN1CC[C@@H](Oc2cc(C(=O)NCc3ccc(Cl)c(Cl)c3)ccc2C(F)(F)F)C1 | 5.90
O=C(Nc1ccc(OC(F)(F)F)cc1)NC1CCN(c2ccnc3ccccc23)CC1 | 6.52
Cc1nc(-c2ccc(-c3ccc(NC(=O)c4coc5ccc(N6C[C@@H](C)N[C@@H](C)C6)cc45)cc3)c(C)c2)no1 | 6.03
O=c1c2ccccc2[nH]c2cc(Cl)ccc12 | 6.06
COc1ccc(-c2ccc(NC(=O)c3ccc(C#N)cc3)cc2)cc1CNC(C)C | 6.28
OCCN1CCN(Cc2ccc(-c3cccc(-c4nc5ccc(F)cc5[nH]4)c3)cc2)CC1 | 6.21
CCCC[C@@H](C(=O)NCCc1ccc(Cl)cc1)N1C(=O)CCC1C(=O)Nc1ccc(Cl)c(Cl)c1 (some centres undefined) | 6.06
Clc1ccc2c(NCCNc3ccnc4cc(Cl)ccc34)ccnc2c1 | 6.40
COc1ccc(C=CC(=O)NC2CCC(CN3CCC(c4c[nH]c5ccccc45)CC3)CC2)cc1 (centres undefined) | 6.11 and 6.09
Cc1noc(C)c1-c1ccc2c(Nc3ccc([N+](=O)[O-])cc3)c(C(N)=O)cnc2c1 | 6.16
CCOC(=O)c1ccc(NC(=O)Nc2cccc(-c3cccc(-c4nc5ccc(F)cc5[nH]4)c3)c2)cc1 | 7.05
CCOC(=O)NCCSC(C)(C)[C@H](NC(=O)[C@H](Cc1cc2ccccc2s1)[C@H](CC)N(O)C=O)C(=O)Nc1nccs1 | 6.52
Cc1nc(NCCCn2ccnc2)cc(-c2cncc(-c3ccc(OC(F)(F)F)cc3)c2)n1 | 6.21
Cc1nn(-c2cccc(C(F)(F)F)c2)c2sc(C(=O)NC3CCN(C(C)C)CC3)cc12 | 6.05
COc1cccc(CNc2noc(-c3c(-c4ccccc4)noc3C)n2)c1OC | 6.06
O=C(NC1CCN(c2ccnc3ccccc23)C1)c1ccc(OC(F)(F)F)cc1 (centres undefined) | 5.94
Oc1ccc(Cl)cc1CN1CCCC(COC(c2ccc(F)cc2)c2ccc(F)cc2)C1 (centres undefined) | 6.17
CC(C)(C)c1ccc(CN2CCC(CNC(=O)c3cc(-c4ccccc4Cl)cs3)C2)cc1 (centres undefined) | 6.07
